Source: PubChem BioAssay (NCI)
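Where inhibition never reached the appropriate level, the endpoint shown equals the highest concentration tested. Otherwise, values were interpolated linearly from a five-concentration, 48-hour dose response in 96-well plates. TGI is the concentration that stops growth completely.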

How the values were obtained:
Assay in all cases: growth of human tumour cells (NCI), 48 h
NCI-H23 lung = system: NCI-H23 lung
ACHN renal = system: ACHN renal
RXF 393 renal = system: RXF 393 renal
EKVX NSCLC = system: EKVX NSCLC
SNB-75 CNS = system: SNB-75 CNS
SF-539 CNS = system: SF-539 CNS
MDA-N = system: MDA-N
MDA-MB-435 = system: MDA-MB-435
NCI-H226 lung = system: NCI-H226 lung
A549 NSCLC = system: A549 NSCLC
K-562 leukemia = system: K-562 leukemia
NCI-H522 lung = system: NCI-H522 lung
KM12 colon = system: KM12 colon
SR leukemia = system: SR leukemia
TK-10 renal = system: TK-10 renal
SK-OV-3 ovarian = system: SK-OV-3 ovarian
NCI-H460 lung = system: NCI-H460 lung
SF-268 CNS = system: SF-268 CNS
OVCAR-8 ovarian = system: OVCAR-8 ovarian
BT-549 breast = system: BT-549 breast
SK-MEL-2 melanoma = system: SK-MEL-2 melanoma
786-0 renal = system: 786-0 renal
U251 CNS = system: U251 CNS
NCI/ADR-RES ovarian = system: NCI/ADR-RES ovarian
RPMI-8226 leukemia = system: RPMI-8226 leukemia
MDA-MB-231 breast = system: MDA-MB-231 breast
MCF7 breast = system: MCF7 breast
MALME-3M melanoma = system: MALME-3M melanoma
OVCAR-5 ovarian = system: OVCAR-5 ovarian
HCT-15 colon = system: HCT-15 colon
T-47D breast = system: T-47D breast
HT29 colon = system: HT29 colon
PC-3 prostate = system: PC-3 prostate
OVCAR-4 ovarian = system: OVCAR-4 ovarian
M14 melanoma = system: M14 melanoma
SW-620 colon = system: SW-620 colon
MOLT-4 leukemia = system: MOLT-4 leukemia
CAKI-1 renal = system: CAKI-1 renal
UACC-257 melanoma = system: UACC-257 melanoma
OVCAR-3 ovarian = system: OVCAR-3 ovarian
LOX IMVI melanoma = system: LOX IMVI melanoma
CCRF-CEM leukemia = system: CCRF-CEM leukemia
HS 578T breast = system: HS 578T breast
HOP-62 NSCLC = system: HOP-62 NSCLC
SK-MEL-28 melanoma = system: SK-MEL-28 melanoma
UO-31 renal = system: UO-31 renal
HCT-116 colon = system: HCT-116 colon
HOP-92 NSCLC = system: HOP-92 NSCLC
SF-295 CNS = system: SF-295 CNS
SNB-19 CNS = system: SNB-19 CNS
SN12C renal = system: SN12C renal
COLO 205 colon = system: COLO 205 colon
SK-MEL-5 melanoma = system: SK-MEL-5 melanoma
DU-145 prostate = system: DU-145 prostate
HCC-2998 colon = system: HCC-2998 colon
UACC-62 melanoma = system: UACC-62 melanoma
IGROV1 ovarian = system: IGROV1 ovarian
A498 renal = system: A498 renal

Measured: TGI

COc1cc2c(cc1OCc1ccccc1)NC(=O)[C@@H]1C[C@@H](O)CN1C2=O
> 100 µM: NCI-H23 lung | ACHN renal | RXF 393 renal | EKVX NSCLC | SNB-75 CNS | SF-539 CNS | MDA-N | MDA-MB-435 | NCI-H226 lung | A549 NSCLC | K-562 leukemia | NCI-H522 lung | KM12 colon | SR leukemia | TK-10 renal | SK-OV-3 ovarian | NCI-H460 lung | SF-268 CNS | OVCAR-8 ovarian | BT-549 breast | SK-MEL-2 melanoma | 786-0 renal | U251 CNS | NCI/ADR-RES ovarian | RPMI-8226 leukemia | MDA-MB-231 breast | MCF7 breast | MALME-3M melanoma | OVCAR-5 ovarian | HCT-15 colon | T-47D breast | HT29 colon | PC-3 prostate | OVCAR-4 ovarian | M14 melanoma | SW-620 colon | MOLT-4 leukemia | CAKI-1 renal | UACC-257 melanoma | OVCAR-3 ovarian | LOX IMVI melanoma | CCRF-CEM leukemia | HS 578T breast | HOP-62 NSCLC | SK-MEL-28 melanoma | UO-31 renal | HCT-116 colon | HOP-92 NSCLC | SF-295 CNS | SNB-19 CNS | SN12C renal | COLO 205 colon | SK-MEL-5 melanoma | DU-145 prostate | HCC-2998 colon | UACC-62 melanoma | IGROV1 ovarian | A498 renal

COc1ccc2c3c([nH]c2c1)[C@H]1C[C@H]2[C@H](C[C@@H](O)[C@H](OC)[C@H]2C(=O)O)CN1CC3
> 100 µM: NCI-H23 lung | ACHN renal | RXF 393 renal | EKVX NSCLC | SNB-75 CNS | SF-539 CNS | MDA-N | MDA-MB-435 | NCI-H226 lung | A549 NSCLC | K-562 leukemia | NCI-H522 lung | KM12 colon | SR leukemia | TK-10 renal | SK-OV-3 ovarian | NCI-H460 lung | SF-268 CNS | OVCAR-8 ovarian | BT-549 breast | SK-MEL-2 melanoma | 786-0 renal | U251 CNS | NCI/ADR-RES ovarian | RPMI-8226 leukemia | MDA-MB-231 breast | MCF7 breast | MALME-3M melanoma | OVCAR-5 ovarian | HCT-15 colon | T-47D breast | HT29 colon | PC-3 prostate | OVCAR-4 ovarian | M14 melanoma | SW-620 colon | MOLT-4 leukemia | CAKI-1 renal | UACC-257 melanoma | OVCAR-3 ovarian | LOX IMVI melanoma | CCRF-CEM leukemia | HS 578T breast | HOP-62 NSCLC | SK-MEL-28 melanoma | UO-31 renal | HCT-116 colon | HOP-92 NSCLC | SF-295 CNS | SNB-19 CNS | SN12C renal | COLO 205 colon | SK-MEL-5 melanoma | DU-145 prostate | HCC-2998 colon | UACC-62 melanoma | IGROV1 ovarian | A498 renal
